Publication PMC7310027, “PET imaging of soluble epoxide hydrolase in non-human primate brain with [^18F]FNDP” (EJNMMI Research, 2020)
Like-named read-outs stand apart in the source and are kept apart here.

Legend:
[1] = Baboon [^18F]FNDP dynamic PET, baseline scans with kinetic modelling (2TCM, 1TCM, Logan); assay type: in vivo, baboon (Papio anubis); conditions: male, baboon (Papio anubis), intravenous, baseline, mean ± SD of 3 baboons
Method: (§1) PET images were acquired using a CPS/CTI high-resolution research tomograph (HRRT), which has an axial resolution (FWHM) of 2.4 mm and in-plane resolution of 2.4–2.8 mm. […] These blocking studies were performed 27 to 43 days apart from each other to ensure full animal recovery. The animals had no food for 12 h prior to each PET study. Anesthesia was induced with intramuscular ketamine (7.5–10 mg/kg) and maintained with a continuous intravenous infusion of propofol at 0.3–0.4 mg/kg/min throughout the PET experiment. One venous catheter was inserted for the radioligand injection, and one arterial catheter was inserted to obtain arterial blood samples. Baboons were intubated to facilitate respiration, and circulatory volume was maintained by constant infusion of isotonic saline. Physiological vital signs including heart rate, blood pressure, electrocardiogram, and oxygen saturation were monitored continuously throughout the study.
(§2) The animals were positioned in the PET scanner with the head immobilized using a thermoplastic mask. A 6-min transmission scan was acquired using a rotating ^137Cesium source for generating attenuation maps. The 90-min dynamic PET acquisition was then started in three-dimensional list mode simultaneously with an intravenous bolus injection of [^18F]FNDP. […]
(§3) Measurement of the arterial plasma input function was conducted through collection of ~ 40 blood samples over the course of the 90-min dynamic PET study. […] Samples were then centrifuged at 1200 × g, and the plasma radioactivity was measured with a cross-calibrated PerkinElmer Wizard 2480 automatic gamma counter.
(§4) The 90 min of PET data were binned into 30 frames: four 15-s, four 30-s, three 1-min, two 2-min, five 4 -min, and 12 5-min frames. Images were reconstructed using the 3D iterative ordered subset expectation maximization (OS-EM) algorithm (with six iterations and 16 subsets) with correction for radioactive decay, deadtime, attenuation, scatter, and randoms. The reconstructed image space consisted of cubic voxels, each 1.22 mm^3 in size, and spanning dimensions of 31 cm × 31 cm (transaxially) and 25 cm (axially).
(§5) The software package PMOD (v3.7, PMOD Technologies Ltd, Zurich, Switzerland) was used for the image processing and subsequent kinetic analysis. The previously acquired T1-weighted brain MRI images for the baboon were co-registered to the reconstructed dynamic PET images acquired in this study. Through manually matching the co-registered MRI to the INIA19 Template and NeuroMaps Atlas for Primate Brain Image Parcellation and Spatial Normalization, 13 representative baboon brain volumes of interest (VOIs) were defined, […] Regional time activity curves (TACs) were then generated for both baseline and blocking PET scans using those VOIs.
(§6) Next, kinetic modeling was performed based on the TACs and the metabolite-corrected arterial plasma input functions. For brain uptake, the primary outcome measure was the regional brain distribution volume (VT) of [^18F]FNDP, defined as concentration of the radiotracer in regional tissue relative to that in blood at equilibrium. We evaluated which compartmental models (e.g., two-tissue-three-compartment (2TCM) or one-tissue-two-compartment (1TCM)) best described the [^18F]FNDP PET data, using statistical model selection criteria, such as the Akaike information criterion. For comparison, the Logan graphical method (t* = 30 min) was also used to compute regional VT, as well as generating voxel-wise parametric images of VT [31].

[2] = test system: soluble epoxide hydrolase (sEH); test: as above; assay type: in vivo, baboon (Papio anubis)
Method: as §1, §2, §3, §4, §5, §6

sEH = test system: sEH; design: method as in PMID 27417650; conditions: self-blockade experiments; cited from earlier work
[3] = Amygdala, baseline, mean ± SD of 3 baboons
[4] = Caudate, baseline, mean ± SD of 3 baboons
[5] = Cerebellum, baseline, mean ± SD of 3 baboons
[6] = Corpus callosum, baseline, mean ± SD of 3 baboons
[7] = Frontal gyrus, baseline, mean ± SD of 3 baboons
[8] = Globus pallidus, baseline, mean ± SD of 3 baboons
[9] = Hippocampus, baseline, mean ± SD of 3 baboons
[10] = Hypothalamus, baseline, mean ± SD of 3 baboons
[11] = Insula, baseline, mean ± SD of 3 baboons
[12] = Occipital cortex, baseline, mean ± SD of 3 baboons
[13] = Putamen, baseline, mean ± SD of 3 baboons
[14] = Temporal gyrus, baseline, mean ± SD of 3 baboons
[15] = Thalamus, baseline, mean ± SD of 3 baboons
[16] = White matter, baseline, mean ± SD of 3 baboons

Q: What does the source list for `O=C(NCCC(c1ccccc1)c1ccccc1)c1ccc([18F])nc1` [[^18F]FNDP, N-(3,3-diphenylpropyl)-6-^18F-fluoronicotinamide]?
A: Kp ([1]; brain: amygdala, Amygdala, read-out: 1TCM VT): 10.5 ± 0.81; Kp ([1]; brain: amygdala, Amygdala, read-out: 2TCM VT): 12.5 ± 2.47; Kp ([1]; brain: amygdala, Amygdala, read-out: Logan VT): 12 ± 1.63; Kp ([1]; brain: caudate, Caudate, read-out: 1TCM VT): 12.9 ± 1.44; Kp ([1]; brain: caudate, Caudate, read-out: 2TCM VT): 13.9 ± 2.28; Kp ([1]; brain: caudate, Caudate, read-out: Logan VT): 13.3 ± 1.94; Kp ([1]; brain: cerebellum, Cerebellum, read-out: Logan VT): 7.63 ± 0.58; Kp ([1]; brain: hippocampus, Hippocampus, read-out: 1TCM VT): 10.3 ± 1.55; Kp ([1]; brain: hippocampus, Hippocampus, read-out: 2TCM VT): 11.5 ± 2.61; Kp ([1]; brain: hippocampus, Hippocampus, read-out: Logan VT): 11 ± 1.96; Kp ([1]; brain: hypothalamus, Hypothalamus, read-out: 1TCM VT): 7.77 ± 0.35; Kp ([1]; brain: hypothalamus, Hypothalamus, read-out: 2TCM VT): 8.32 ± 0.57; Kp ([1]; brain: hypothalamus, Hypothalamus, read-out: Logan VT): 8.08 ± 0.44; Kp ([1]; brain: insula, Insula, read-out: 1TCM VT): 12.1 ± 1.08; Kp ([1]; brain: insula, Insula, read-out: 2TCM VT): 13.8 ± 1.42; Kp ([1]; brain: insula, Insula, read-out: Logan VT): 12.8 ± 1.32; Kp ([1]; brain: putamen, Putamen, read-out: 1TCM VT): 12.9 ± 1.54; Kp ([1]; brain: putamen, Putamen, read-out: 2TCM VT): 13.8 ± 2.27; Kp ([1]; brain: putamen, Putamen, read-out: Logan VT): 13.3 ± 1.81; Kp ([1]; brain: temporal gyrus, Temporal gyrus, read-out: 1TCM VT): 9.05 ± 0.41; Kp ([1]; brain: temporal gyrus, Temporal gyrus, read-out: 2TCM VT): 9.77 ± 1.02; Kp ([1]; brain: thalamus, Thalamus, read-out: 1TCM VT): 7.42 ± 0.36; Kp ([1]; brain: thalamus, Thalamus, read-out: 2TCM VT): 7.9 ± 0.74; Kp ([1]; brain: thalamus, Thalamus, read-out: Logan VT): 7.87 ± 0.55; 1TCM K1 [2, 3]: 0.14 ± 0.03 mL/cm^3/min; 2TCM K1 [2, 3]: 0.14 ± 0.03 mL/cm^3/min; 1TCM K1 [2, 4]: 0.21 ± 0.05 mL/cm^3/min; 2TCM K1 [2, 4]: 0.21 ± 0.05 mL/cm^3/min; 1TCM K1 [2, 5]: 0.18 ± 0.03 mL/cm^3/min; 2TCM K1 [2, 5]: 0.19 ± 0.03 mL/cm^3/min; 1TCM K1 [2, 6]: 0.15 ± 0.03 mL/cm^3/min; 2TCM K1 [2, 6]: 0.17 ± 0.03 mL/cm^3/min; 1TCM K1 [2, 7]: 0.16 ± 0.04 mL/cm^3/min; 2TCM K1 [2, 7]: 0.18 ± 0.04 mL/cm^3/min; 1TCM K1 [2, 8]: 0.17 ± 0.03 mL/cm^3/min; 2TCM K1 [2, 8]: 0.19 ± 0.03 mL/cm^3/min; 1TCM K1 [2, 9]: 0.14 ± 0.03 mL/cm^3/min; 2TCM K1 [2, 9]: 0.15 ± 0.04 mL/cm^3/min; 1TCM K1 [2, 10]: 0.14 ± 0.03 mL/cm^3/min; 2TCM K1 [2, 10]: 0.15 ± 0.03 mL/cm^3/min; 1TCM K1 [2, 11]: 0.20 ± 0.05 mL/cm^3/min; 2TCM K1 [2, 11]: 0.22 ± 0.05 mL/cm^3/min; 1TCM K1 [2, 12]: 0.17 ± 0.06 mL/cm^3/min; 2TCM K1 [2, 12]: 0.18 ± 0.06 mL/cm^3/min; 1TCM K1 [2, 13]: 0.22 ± 0.05 mL/cm^3/min; 2TCM K1 [2, 13]: 0.23 ± 0.05 mL/cm^3/min; 1TCM K1 [2, 14]: 0.16 ± 0.03 mL/cm^3/min; 2TCM K1 [2, 14]: 0.17 ± 0.03 mL/cm^3/min; 1TCM K1 [2, 15]: 0.16 ± 0.03 mL/cm^3/min; 2TCM K1 [2, 15]: 0.17 ± 0.03 mL/cm^3/min; 1TCM K1 [2, 16]: 0.17 ± 0.04 mL/cm^3/min; 2TCM K1 [2, 16]: 0.18 ± 0.04 mL/cm^3/min; time of peak of regional brain TACs post-injection ([2]; all regions at baseline): < 15 min; K1 (2TCM) ([2]; baseline scan, Baboon3): 0.151 ± 0.021 mL/cm^3/min; Kp ([2]; male, baboon (Papio anubis), brain (cerebellum), intravenous, Cerebellum, baseline, mean ± SD of 3 baboons, read-out: 1TCM VT): 7.33 ± 0.45; Kp ([2]; male, baboon (Papio anubis), brain (cerebellum), intravenous, Cerebellum, baseline, mean ± SD of 3 baboons, read-out: 2TCM VT): 7.66 ± 0.72; Kp ([2]; male, baboon (Papio anubis), brain (globus pallidus), intravenous, Globus pallidus, baseline, mean ± SD of 3 baboons, read-out: 1TCM VT): 9.07 ± 0.66; Kp ([2]; male, baboon (Papio anubis), brain (globus pallidus), intravenous, Globus pallidus, baseline, mean ± SD of 3 baboons, read-out: 2TCM VT): 9.74 ± 1.02; Kp ([2]; male, baboon (Papio anubis), brain (globus pallidus), intravenous, Globus pallidus, baseline, mean ± SD of 3 baboons, read-out: Logan VT): 9.44 ± 0.92; Kp ([2]; male, baboon (Papio anubis), brain (occipital cortex), intravenous, Occipital cortex, baseline, mean ± SD of 3 baboons, read-out: 1TCM VT): 7.39 ± 1.56; Kp ([2]; male, baboon (Papio anubis), brain (occipital cortex), intravenous, Occipital cortex, baseline, mean ± SD of 3 baboons, read-out: 2TCM VT): 7.82 ± 1.82; Kp ([2]; male, baboon (Papio anubis), brain (occipital cortex), intravenous, Occipital cortex, baseline, mean ± SD of 3 baboons, read-out: Logan VT): 7.67 ± 1.63; total distribution volume (VT, Logan) ([2]; male, baboon (Papio anubis), brain (range over regions), intravenous, baseline, 3 baboons): 7.63 to 13.3; Kp ([2]; male, baboon (Papio anubis), brain (white matter), intravenous, White matter, baseline, mean ± SD of 3 baboons, read-out: 1TCM VT): 8.43 ± 0.89; Kp ([2]; male, baboon (Papio anubis), brain (white matter), intravenous, White matter, baseline, mean ± SD of 3 baboons, read-out: 2TCM VT): 9.29 ± 1.08; Kp ([2]; male, baboon (Papio anubis), brain (white matter), intravenous, White matter, baseline, mean ± SD of 3 baboons, read-out: Logan VT): 9 ± 1.03; Kp ([2]; male, baboon (Papio anubis), brain, corpus callosum, intravenous, Corpus callosum, baseline, mean ± SD of 3 baboons, read-out: 1TCM VT): 8.32 ± 0.91; Kp ([2]; male, baboon (Papio anubis), brain, corpus callosum, intravenous, Corpus callosum, baseline, mean ± SD of 3 baboons, read-out: 2TCM VT): 9.28 ± 0.9; Kp ([2]; male, baboon (Papio anubis), brain, corpus callosum, intravenous, Corpus callosum, baseline, mean ± SD of 3 baboons, read-out: Logan VT): 9.06 ± 0.99; Kp ([2]; male, baboon (Papio anubis), brain, frontal gyrus, intravenous, Frontal gyrus, baseline, mean ± SD of 3 baboons, read-out: 1TCM VT): 9.58 ± 0.6; Kp ([2]; male, baboon (Papio anubis), brain, frontal gyrus, intravenous, Frontal gyrus, baseline, mean ± SD of 3 baboons, read-out: 2TCM VT): 10.5 ± 1.01; Kp ([2]; male, baboon (Papio anubis), brain, frontal gyrus, intravenous, Frontal gyrus, baseline, mean ± SD of 3 baboons, read-out: Logan VT): 10.3 ± 0.91; Kp ([2]; male, baboon (Papio anubis), brain, intravenous, baboon brain, baseline, read-out: baseline VT): 10.9 ± 2.4; Kp ([2]; male, baboon (Papio anubis), brain, temporal gyrus, intravenous, Temporal gyrus, baseline, mean ± SD of 3 baboons, read-out: Logan VT): 9.52 ± 0.57; binding specificity for sEH (sEH): ~ 95%
